Data: patent US9464326B2, “Total and phosphorylated IL-1 receptor-associated kinase-1 and IL-1 receptor-associated kinase-4 as a biomarker for cancer progression and chemotherapy resistance” (University of Maryland, Baltimore, priority 2012, dated 2016)

Test system: CCRF-CEM cells
Experiment: Cell number and apoptosis assays
Assay type: cell-based, human
Conditions: IRAK-1,-4 inhibitor 0-20 μM plus titrated drug, apoptosis by 7AAD at 48 hours, FIG. 23
Protocol: TLR ligands were diluted 2-fold. Cell lines (25-40×10^3/well) were cultured for 54 hours, whereas fresh patient-derived T-ALL cells (200×10^3/well) were cultured for 30 hours prior to adding [^3H]-thymidine for 18 hours. After this time point, cells were harvested with a Packard Filter-Mate-96 cell harvester (Perkin Elmer, Waltham, Mass., USA) and counted on Packard Top Count-NXT (Perkin Elmer, Waltham, Mass., USA). Results were expressed as average counts per minute (cpm). In some experiments CCRF-CEM cells were pre-treated with TLR1-TLR2 ligand (Pam3CysK4; 2.5 ug/ml) for 48 hrs, washed, and then cultured in the presence of varying concentrations of FBS. Forty-eight hours later, proliferation (±SD) was determined by ^3H-thymidine incorporation. Alternatively, apoptosis was measured by flow cytometry after staining cells with Annexin-V (BD Pharmingen, San Diego, Calif., USA) and propidium iodide (Sigma). Cell number was counted under microscopy by staining cells with trypan blue.
CCRF-CEM cells were treated with IRAK-1,-4 inhibitor for 24, 48, 72, and 96 hours.
The T-ALL cell line CCRF-CEM was cultured in the presence of 0, 1.2, 5, 10, and 20 μM IRAK-1,-4 inhibitor. (FIG. 23). To each concentration of IRAK-1,-4 inhibitor titrating doses of ABT-737 (1000→15 nM) vincristine, VS (10→0.1 nM), and paclitaxol, PAC (100→1.5 nM). […] Apoptosis was measure 48 hours later by staining cells with 7AAD and analyzed by flow cytometry.

CC(=O)O[C@H]1C(=O)[C@@]2(C)[C@H]([C@H](OC(=O)c3ccccc3)[C@]3(O)C[C@H](OC(=O)[C@H](O)[C@@H](NC(=O)c4ccccc4)c4ccccc4)C(C)=C1C3(C)C)[C@]1(OC(C)=O)CO[C@@H]1C[C@@H]2O [paclitaxel]
synergy with IRAK-1,-4 inhibitor: synergy
